Source: patent US5599559A, “Calcium channel blocking polypeptide from agelenopsis aperta and therapeutic methods employing it” (priority 1995, dated 1997)
Read-outs that look alike come from different tables or passages of the source.

Test system: calcium channels
Assay type: cell-based, rats
Conditions: read-out: IC50 for blocking calcium channels, pH 7.4

## COc1ccc(CCN(C)CCCC(C#N)(c2ccc(OC)c(OC)c2)C(C)C)cc1OC (centres unmarked) [Verapamil]
  IC50: 4.8 µM

## H2 N-Glu-Ala-Cys-Ala-Gly-Ala-Tyr-Lys-Ser-Cys-Asp-Lys-Val-Lys-Cys-Cys-His-Asp- Arg-Arg-Cys-Arg-Cys-Asn-lle-Ala-Met-Asp-Asn-Cys-Val-Cys-Lys-Leu-Phe-Tyr-Cys-Glu-Leu-Phe-Gly-Thr-Cys-Asp-Arg-Leu-Lys-Pro [peptide J2]
Cerebellar granule cells from 8 day old rats, fura2 fluorescence, 37° C.
  IC50: < 0.2 µM
